One assay has as its target T1, JAK2 (Homo sapiens, UniProt O60674).
T1 construct: endogenous in cells; host or cells: mixed Molt4/Ramos lysate (1:2)
Briefly: Kinobeads assay, JAK2. The class given is binding. Particulars: mixed Molt4/Ramos lysate, read-out: Inhibition values (IC50) JAK2. The essentials: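 Competition binding in mixed Molt4/Ramos cell lysate (1:2, 10 mg/mL protein) with Kinobeads carrying immobilized aminopyrido-pyrimidine ligand, 3 h in cold room; 9-step 1:3 compound dilution series from 5 mM DMSO stock. Bead-bound JAK2/JAK3 eluted and quantified by antibody dot blot with infrared detection; IC50 from dose-response curves.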

The next assay has as its target T2, Aurora A (Homo sapiens, UniProt O14965).
T2 construct: cell lysates from Jurkat cells (ATCC TIB-152) used; endogenous in cells; host or cells: Jurkat cells (ATCC TIB-152), treated with pervanadate
T2 sequence (O14965 1-403): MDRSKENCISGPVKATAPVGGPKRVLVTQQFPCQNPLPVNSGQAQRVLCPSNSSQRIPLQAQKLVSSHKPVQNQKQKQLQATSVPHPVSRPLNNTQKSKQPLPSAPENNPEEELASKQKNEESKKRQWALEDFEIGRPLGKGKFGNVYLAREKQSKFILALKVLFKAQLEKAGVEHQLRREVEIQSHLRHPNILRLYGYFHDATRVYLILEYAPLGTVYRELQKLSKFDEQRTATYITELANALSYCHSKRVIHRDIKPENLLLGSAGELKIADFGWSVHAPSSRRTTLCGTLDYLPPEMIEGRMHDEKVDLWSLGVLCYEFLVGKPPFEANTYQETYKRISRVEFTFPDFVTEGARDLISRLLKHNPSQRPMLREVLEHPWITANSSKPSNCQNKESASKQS
Briefly: Kinobeads assay, Aurora A. The class given is binding. Particulars: for IC50: lysate of pervanadate-treated Jurkat cells, read-out: Inhibition values (IC50) Aur A.

The values that follow come from patent US9040545B2, “Heterocyclyl pyrazolopyrimidine analogues as selective JAK inhibitors” (Cellzome Limited, priority 2010, dated 2015).

T1 sequence (O60674 whole entry): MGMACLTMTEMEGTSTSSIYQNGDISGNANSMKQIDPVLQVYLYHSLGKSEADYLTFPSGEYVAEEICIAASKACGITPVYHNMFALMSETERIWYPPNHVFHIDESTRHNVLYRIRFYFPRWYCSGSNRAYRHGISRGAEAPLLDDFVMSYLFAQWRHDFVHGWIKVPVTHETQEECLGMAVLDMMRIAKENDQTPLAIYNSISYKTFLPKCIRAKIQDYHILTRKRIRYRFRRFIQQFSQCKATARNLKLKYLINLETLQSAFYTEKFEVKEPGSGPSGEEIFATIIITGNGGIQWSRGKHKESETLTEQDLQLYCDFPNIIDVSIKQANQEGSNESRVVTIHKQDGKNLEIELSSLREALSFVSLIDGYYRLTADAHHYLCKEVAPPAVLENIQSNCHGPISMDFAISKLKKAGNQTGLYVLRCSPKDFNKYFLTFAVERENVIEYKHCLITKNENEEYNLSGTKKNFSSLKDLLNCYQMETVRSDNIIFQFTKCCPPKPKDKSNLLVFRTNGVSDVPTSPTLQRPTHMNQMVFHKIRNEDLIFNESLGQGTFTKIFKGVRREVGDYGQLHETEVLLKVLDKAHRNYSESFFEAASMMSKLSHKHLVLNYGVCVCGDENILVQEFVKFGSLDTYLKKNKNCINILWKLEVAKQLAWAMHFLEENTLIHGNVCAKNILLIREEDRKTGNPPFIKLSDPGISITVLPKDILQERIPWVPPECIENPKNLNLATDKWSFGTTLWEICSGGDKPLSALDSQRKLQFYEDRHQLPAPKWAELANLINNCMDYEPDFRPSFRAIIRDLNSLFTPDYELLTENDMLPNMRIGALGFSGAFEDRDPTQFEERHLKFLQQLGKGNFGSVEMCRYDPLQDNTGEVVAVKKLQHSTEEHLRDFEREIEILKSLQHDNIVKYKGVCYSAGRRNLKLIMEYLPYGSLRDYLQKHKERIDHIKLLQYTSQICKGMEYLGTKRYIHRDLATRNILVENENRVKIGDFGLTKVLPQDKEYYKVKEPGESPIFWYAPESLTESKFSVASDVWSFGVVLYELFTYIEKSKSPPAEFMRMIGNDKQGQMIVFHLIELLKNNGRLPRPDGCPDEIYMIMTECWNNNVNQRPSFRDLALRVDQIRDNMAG

In general, IC50 refers to the concentration that inhibits the measured activity by half. `Cn1cc(Nc2ncc3cnn(Cc4cccc(N5CC6(COC6)C5)c4)c3n2)cn1` [Example 89, 1-(3-(2-oxa-6-azaspiro[3.3]heptan-6-yl)benzyl)-N-(1-methyl-1H-pyrazol-4-yl)-1H-pyrazolo[3,4-d]pyrimidin-6-amine]: the IC50 at JAK2 was ≥ 10 µM. For the same molecule, at Aurora A, the “JAK3/AurA Fold Selectivity” value was 10-50 Fold and the IC50 was in the range of 0.1 to 1 µM.

With `Cn1cc(Nc2ncc3cnn(Cc4cc(F)cc(N5CC6(COC6)C5)c4)c3n2)cn1` [Example 90, 1-(3-fluoro-5-(2-oxa-6-azaspiro[3.3]heptan-6-yl)benzyl)-N-(1-methyl-1H-pyrazol-4-yl)-1H-pyrazolo[3,4-d]pyrimidin-6-amine], the IC50 on JAK2 was 1 to 10 µM; on Aurora A, ≥ 10 µM. Besides, the “JAK3/AurA Fold Selectivity” value at Aurora A is given as 10-50 Fold.

Consider `Cn1cc(Nc2ncc3cnn(Cc4cccc(N5CC6(COC6)C5)c4F)c3n2)cn1` [Example 91, 1-(2-fluoro-3-(2-oxa-6-azaspiro[3.3]heptan-6-yl)benzyl)-N-(1-methyl-1H-pyrazol-4-yl)-1H-pyrazolo[3,4-d]pyrimidin-6-amine], for which the IC50 at JAK2 was 1 to 10 µM; on Aurora A, ≥ 10 µM.

For the molecule `Cn1cc(Nc2ncc3cnn(Cc4cc(F)cc(N5CCNCC5)c4)c3n2)cn1` [Example 92, 1-(3-fluoro-5-(piperazin-1-yl)benzyl)-N-(1-methyl-1H-pyrazol-4-yl)-1H-pyrazolo[3,4-d]pyrimidin-6-amine], the IC50 at JAK2 fell in the range of 1 to 10 µM. Moreover, at Aurora A, the “JAK3/AurA Fold Selectivity” value is 10-50 Fold and the half-maximal inhibitory concentration (IC50) was in the range of 0.1 to 1 µM.

In the case of `OCCn1cc(Nc2ncc3cnn(Cc4cc(F)cc(N5CCNCC5)c4)c3n2)cn1` [Example 93, 2-(4-((1-(3-fluoro-5-(piperazin-1-yl)benzyl)-1H-pyrazolo[3,4-d]pyrimidin-6-yl)amino)-1H-pyrazol-1-yl)ethanol], the 50% inhibitory concentration (IC50) at JAK2 was 1 to 10 µM. In addition, at Aurora A, the “JAK3/AurA Fold Selectivity” value is recorded as 10-50 Fold and the half-inhibitory concentration (IC50) was 0.1 to 1 µM.

With `Fc1cc(N2CCOCC2)c(F)c(Cn2ncc3cnc(Nc4cnn(CC5CCNC5)c4)nc32)c1F` (centres unmarked) [Example 94, N-(1-(pyrrolidin-3-ylmethyl)-1H-pyrazol-4-yl)-1-(2,3,6-trifluoro-5-morpholinobenzyl)-1H-pyrazolo[3,4-d]pyrimidin-6-amine], the IC50 on JAK2 was 1 to 10 µM. For the same molecule, at Aurora A, the “JAK3/AurA Fold Selectivity” value is reported as >50 Fold and the IC50 is 1 to 10 µM.

As for `Cn1cc(Nc2ncc3cnn(Cc4cc(F)cc(N5CCNCC5)c4F)c3n2)cn1` [Example 95, 1-(2,5-difluoro-3-(piperazin-1-yl)benzyl)-N-(1-methyl-1H-pyrazol-4-yl)-1H-pyrazolo[3,4-d]pyrimidin-6-amine], at JAK2, the concentration for half-maximal inhibition (IC50) lay in the range of 0.1 to 1 µM. Besides, on Aurora A, the “JAK3/AurA Fold Selectivity” value was 10-50 Fold and the IC50 lay in the range of 0.1 to 1 µM.

Regarding `OCCn1cc(Nc2ncc3cnn(Cc4cc(F)cc(N5CCNCC5)c4F)c3n2)cn1` [Example 96, 2-(4-((1-(2,5-difluoro-3-(piperazin-1-yl)benzyl)-1H-pyrazolo[3,4-d]pyrimidin-6-yl)amino)-1H-pyrazol-1-yl)ethanol], the concentration for half-maximal inhibition (IC50) at JAK2 fell in the range of 0.1 to 1 µM. Further, at Aurora A, the “JAK3/AurA Fold Selectivity” value is recorded as >50 Fold and the IC50 is ≥ 10 µM.

Consider `CN(C)CC(F)Cn1cc(Nc2ncc3cnn(Cc4cc(F)cc(N5CCOCC5=O)c4)c3n2)cn1` (centres unmarked) [Example 97, 4-(3-((6-((1-(3-(dimethylamino)-2-fluoropropyl)-1H-pyrazol-4-yl)amino)-1H-pyrazolo[3,4-d]pyrimidin-1-yl)methyl)-5-fluorophenyl)morpholin-3-one], for which the IC50 on JAK2 fell in the range of 1 to 10 µM. At Aurora A, the “JAK3/AurA Fold Selectivity” value was 10-50 Fold and the IC50 was in the range of 0.1 to 1 µM.

Take `Cn1cc(Nc2ncc3cnn(Cc4cc(C(=O)N5CCOCC5)cc(F)c4F)c3n2)cn1` [Example 98, (3,4-difluoro-5-((6-((1-methyl-1H-pyrazol-4-yl)amino)-1H-pyrazolo[3,4-d]pyrimidin-1-yl)methyl)phenyl)(morpholino)methanone]: the IC50 on JAK2 was 1 to 10 µM; on Aurora A it was < 0.1 µM. Also, the “JAK3/AurA Fold Selectivity” value at Aurora A is reported as 3-10 Fold.
